Test results reported in patent US11413267B2, “Methods and compositions for inhibition of ATR and FANCD2 activation” (priority 2012, dated 2022).

Assays:
HeLa cells = test: DNA homologous recombination repair assay (pHPRT-DRGFP / I-SceI); assay type: cell-based, human; conditions: for GFP cell (%): chromosomal breaks generated by I-SceI endonuclease expression, 48 h
Source text: ATR function is also linked to DNA repair via its coupled targets (Sorensen C S, et al. Nat Cell Biol 2005). To examine the effect of benzopyran-4-one derivatives treatment on DNA repair, we performed a homologous recombination repair (HRR) assay in HeLa cells. DNA constructs of the recombination substrate pHPRT-DRGFP, in which the I-SceI site lies within 1 copy of 2 mutated tandem repeated GFP genes, and the I-SceI endonuclease expression vector pCBASceI, were originally constructed by Dr. M. Jasin (25). In brief, we generated a stable pHPRT-DRGFP construct in HeLa cells, and evaluated the chromosomal breaks generated by I-SceI endonuclease expression. Six hours after pCBASceI was delivered into the cells, complete medium with or without Protoapigenone (I-1) or compound II-1 was replaced onto the cells. Forty-eight hours after delivery, the efficiency of chromosomal HRR was obtained as the percentage of GFP-positive cells, which was assessed by flow cytometry.

[1] = test system: ATR-dependent Chk1 phosphorylation; test: Immunoblot of DNA damage-induced Chk1 phosphorylation; assay type: cell-based, human
Source text: We hypothesized that genes with functions associated with DNA damage checkpoints and/or DNA repair might be targeted by benzopyran-4-one derivatives. To test this hypothesis, we assessed the effects of benzopyran-4-one derivatives on DDR induced by H2O2. […] In response to DNA double-strand breaks (DSBs), FANCD2 is known to be monoubiquitinated on K561 (FANCD2-Ub) in an ATR-dependent manner to stimulate repair (Andreassen P R, et al. Genes Dev 2004).
To elucidate the specificity of the benzopyran-4-one derivatives inhibition on ATR-mediated signaling, we compared the change between cells treated with benzopyran-4-one derivatives or the ATM-specific inhibitor KU55933 before the induction of DDR.
MDA-MB-231 (breast adenocarcinoma; ATCC HTB-26, BCRC 60425) and A549 (lung adenocarcinoma; ATCC CCL-185, BCRC 60074) human cell lines were purchased from Bioresource Collection and Research Center (BCRC, Hsinchu, Taiwan), and were authenticated by American Type Culture Collection (ATCC, Manassas, Va.). U2OS (osteosarcoma), HeLa (cervical adenocarcinoma), and HEK 293T (embryonic kidney cells) human cell lines were provided by Dr. Sheau-Yann Shieh (Institute of Molecular Biology, Academia Sinica, Taipei, Taiwan). Cells were maintained in Dulbecco's modified Eagle's medium (DMEM, Sigma-Aldrich) supplemented with 10% fetal bovine serum (FBS) (Gibco). […] For UV irradiation treatment, the cells were irradiated for 10 J/m^2 by a cross-linker (UVP) 1 h prior to analysis.
Cell lysate preparations, gel electrophoresis, and immunoblotting were performed as previously described (23). The binding of primary antibodies were detected by horseradish peroxidase-coupled secondary antibodies (Jackson ImmunoResearch) followed by enhanced chemiluminescence (ECL) (Millipore). The images of non-saturated bands were captured using a luminescent image analyzer (LAS-4000 mini; Fujifilm). The antibodies used in this study are listed in supplementary materials.

[2] = test system: A549 cells, MDA-MB-231 cells; test: Cancer cell growth at low doses (FIGS. 19, 20); assay type: cell-based, human; conditions: low doses (I-1 0.25-1 μM, II-1 0.1-0.4 μM)
DNA replication = test: EdU incorporation assay of DNA replication; assay type: cell-based
Experimental: DNA replication was measured using a Click-it EdU assay kit, which is based on incorporation of the thymidine analogue 5-ethynyl-2'-deoxyuridine (EdU) into DNA during replication (Invitrogen). Then, 10 μM EdU was added to the cell culture medium 30 min before the cells were harvested and fixed in 4% paraformaldehyde. After cycloaddition, EdU was detected with Alexa Fluor 647 using click reaction catalyzed by Cu (II), and the DNA content was stained by CellCycle 405-blue. […] An FITC Annexin V apoptosis detection kit was used to characterize the phenotype of cell death based on PI and Annexin V double staining (BD Pharmingen, San Diego, Calif.). Fluorescence-labeled cells were subsequently analyzed by the BD LSR II flow cytometer with a suitable selection of excitation and emission wavelengths. The percentages of different fluorescent cells were analyzed using WinMDI Ver. 2.9.

[3] = test system: GFP-expressing retrovirus (Lenti-GFP); test: Lenti-GFP infection of HEK293T cells; assay type: cell-based, lentivirus
Experimental: In addition to the test of the benzopyran-4-one derivative compounds on the DNA virus infection, they were tested on the retrovirus using a GFP-expressing retrovirus to visualize the […] infection. […]. Afterward, the lentiviral stock (Lenti-GFP) was titered and used to infect the cells for analysis.
To observe the anti-virus effect of the benzopyran-4-one derivative compounds, Ad-GFP and Lenti-GFP at a low MOI of 0.5 were then applied to infect the HEK293A cells and HEK293T cells, respectively. In the prevention group, cells were treated by compounds of Compound I-1 at 0.2, 1, and 2 μM or Compound II-1 at 0.1, 0.5, 1 μM for 30 minutes before Ad-GFP and Lenti-GFP infection. In the treatment group, cells were treated by compounds of Compound I-1 at 0.2, 1, and 2 μM or Compound II-1 at 0.1, 0.5, and 1 μM for 2 hours after Ad-GFP and Lenti-GFP infection. After a total of 6 hours of compounds and virus treatments, cells were washed with Hank's buffered salt solution and a flash culture media was replaced.
24 hours after virus infection, the effect of the benzopyran-4-one derivative compounds on the antivirus infection was recorded by observing the GFP positive cells under an inverted fluorescence microscope. The mean fluorescence intensity by flow cytometry in each plate of cells was analyzed for quantification.

Ad-GFP virus replication = Ad-GFP virus replication (supernatant re-infection of HEK293A cells); assay type: cell-based, adenovirus
Experimental: Ideally, the Ad-GFP virus is replicated within HEK293A cells. To test the effect of benzopyran-4-one derivative compounds on Ad-GFP virus replication, the same virus infection and compound treatment are performed as shown in FIG. 26. At the end of a 24-hour experiment, we collected the Ad-GFP virus from each well of Ad-GFP infected HEK293A using two freeze-thaw cycles and then collected the supernatants. An equal amount of supernatants from each well were then infected with the HEK293A cells, which were newly-prepared 1 day before infection in a 96-well plate at a density of 5×10^4 per well. Finally, the GFP cell images were obtained using the inverted fluorescence microscope and quantified by analyzing the MFI using flow cytometry for each well of cells.

tumor xenografts = conditions: previous studies; cited from earlier work
[4] = pre-treatment, 0.2-2 μM Compound I-1 or 0.1-1 μM Compound II-1
[5] = post-treatment 2 hours after infection, re-infection
[6] = pre-treatment, 24 hours after re-infection

| Compound | Cancer growth [2] | MFI of GFP protein [3, 4] | MFI of GFP protein (Ad-GFP virus replication; [5]) | Number of GFP cells (Ad-GFP virus replication; [5]) | MFI of GFP protein (Ad-GFP virus replication; [6]) | Number of GFP cells (Ad-GFP virus replication; [6]) | Size of tumor xenografts (tumor xenografts) | Toxic effects on the recipient (tumor xenografts) | other results |
| --- | --- | --- | --- | --- | --- | --- | --- | --- | --- |
| O=C1C=CC(O)(c2cc(=O)c3c(O)cc(O)cc3o2)C=C1 [Compound I-1, Protoapigenone] | significantly slowed cancer growth in a dose-dependent manner | significantly decreased | significant decreased | significant decreased | significantly decreased | significantly decreased | reduce the size of tumor xenografts | without exerting toxic effects on the recipient | GFP cell (%) (HeLa cells; 2.0 μM): 0.807 ± 0.0403%; GFP cell (%) (HeLa cells; 4.0 μM): 0.213 ± 0.0105%; Repair of chromosomal breaks by HRR, in words (HeLa cells; low concentrations): dose-dependently inhibited; Reversal of inhibition of Chk1 phosphorylation by okadaic acid or MG132 pretreatment ([1]; 50 μM OA or 20 μM MG132, 10 J/m^2 UV 1 h): could not reverse; Chk1 phosphorylation ([1]; A594 cells, 0.1 mM H2O2 for 2 h): inhibit; Reversal of Chk1 phosphorylation inhibition by overexpression of ATR mediators ([1]; HEK293T cells overexpressing ATRIP, TopBP1, claspin or ATR, 10 J/m^2 UV, 1 h): overexpression of ATRIP or TopBP1 did not reverse the inhibitory effect of Protoapigenone (I-1) on Chk1 phosphorylation, whereas overexpression of claspin or ATR did; Percentage of EdU incorporation compared with control group (DNA replication; 4 μM): efficiently reduce; MFI of GFP protein ([3]; post-treatment, 2 μM): showed an inhibition effect |
| O=C1C=CC(O)(c2cc(=O)c3c(ccc4ccccc43)o2)C=C1 [Compound II-1, 3-(1-hydroxy-4-oxo-cyclohexa-2,5-dienyl)-1H-benzo[f]chromen-1-one] | significantly slowed cancer growth in a dose-dependent manner | significantly decreased | significant decreased | significant decreased | significantly decreased | significantly decreased | reduce the size of tumor xenografts | without exerting toxic effects on the recipient | Dose lower than that of Protoapigenone (I-1) for similar HRR effects (HeLa cells): 10 fold; GFP cell (%) (HeLa cells; 0.2 μM): 0.703 ± 0.0304%; GFP cell (%) (HeLa cells; 0.4 μM): 0.17%; Potency in inhibiting Chk1 phosphorylation, comparison ([1]; FIGS. 6(a), 6(b)): more potent than Protoapigenone (I-1); Percentage of EdU incorporation compared with control group (DNA replication; 0.4 μM): efficiently reduce; MFI of GFP protein ([3]; post-treatment 2 hours after infection, 0.1-1 μM): significantly decreased |
